These results are taken from PubChem BioAssay AID1259407 (Chemical Carcinogenesis Research Information System (CCRIS), 2018).

This data set deals with CCRIS mutagenicity, Ames/micronucleus/aberration tests. Kind of data set: CCRIS mutagenicity studies.

Each structure is given as a SMILES string. Active and inactive are the calls of the source. No rule for the calls is given here.

As for `C=C(C)[C@H]1CC=C(C)CC1`, the mutagenic call is “inactive; negative” (End Point: IN VITRO CHROMOSOMAL ABERRATIONS, Test System: CHO CELLS, Metabolic Activation: NONE); “inactive; negative” (End Point: IN VITRO CHROMOSOMAL ABERRATIONS, Test System: CHO CELLS, Metabolic Activation: RAT, LIVER, S-9, AROCLOR 1254); “inactive; negative” (Test System: AMES SALMONELLA TYPHIMURIUM, Strain/Indicator: TA98, Metabolic Activation: HAMSTER, LIVER, S-9, AROCLOR 1254, Method: PREINCUBATION); “inactive; negative” (Test System: AMES SALMONELLA TYPHIMURIUM, Strain/Indicator: TA98, Metabolic Activation: NONE, Method: PREINCUBATION); “inactive; negative” (Test System: AMES SALMONELLA TYPHIMURIUM, Strain/Indicator: TA98, Metabolic Activation: NONE, Method: STANDARD PLATE); “inactive; negative” (Test System: AMES SALMONELLA TYPHIMURIUM, Strain/Indicator: TA98, Metabolic Activation: RAT, LIVER, S-9, AROCLOR 1254, Method: PREINCUBATION). In addition, the mutagenic call runs as follows: (Test System: AMES SALMONELLA TYPHIMURIUM, Strain/Indicator: TA98, Metabolic Activation: RAT, LIVER, S-9, AROCLOR, Method: STANDARD PLATE) “inactive; negative”; (Test System: AMES SALMONELLA TYPHIMURIUM, Strain/Indicator: TA100, Metabolic Activation: HAMSTER, LIVER, S-9, AROCLOR 1254, Method: PREINCUBATION) “inactive; negative”; (Test System: AMES SALMONELLA TYPHIMURIUM, Strain/Indicator: TA100, Metabolic Activation: NONE, Method: PREINCUBATION) “inactive; negative”; (Test System: AMES SALMONELLA TYPHIMURIUM, Strain/Indicator: TA100, Metabolic Activation: NONE, Method: STANDARD PLATE) “inactive; negative”; (Test System: AMES SALMONELLA TYPHIMURIUM, Strain/Indicator: TA100, Metabolic Activation: RAT, LIVER, S-9, AROCLOR 1254, Method: PREINCUBATION) “inactive; negative”; (Test System: AMES SALMONELLA TYPHIMURIUM, Strain/Indicator: TA100, Metabolic Activation: RAT, LIVER, S-9, AROCLOR, Method: STANDARD PLATE) “inactive; negative”. Further, the mutagenic call runs as follows: (Test System: AMES SALMONELLA TYPHIMURIUM, Strain/Indicator: TA1535, Metabolic Activation: HAMSTER, LIVER, S-9, AROCLOR 1254, Method: PREINCUBATION) “inactive; negative”; (Test System: AMES SALMONELLA TYPHIMURIUM, Strain/Indicator: TA1535, Metabolic Activation: NONE, Method: PREINCUBATION) “inactive; negative”; (Test System: AMES SALMONELLA TYPHIMURIUM, Strain/Indicator: TA1535, Metabolic Activation: RAT, LIVER, S-9, AROCLOR 1254, Method: PREINCUBATION) “inactive; negative”; (Test System: AMES SALMONELLA TYPHIMURIUM, Strain/Indicator: TA1537, Metabolic Activation: HAMSTER, LIVER, S-9, AROCLOR 1254, Method: PREINCUBATION) “inactive; negative”; (Test System: AMES SALMONELLA TYPHIMURIUM, Strain/Indicator: TA1537, Metabolic Activation: NONE, Method: PREINCUBATION) “inactive; negative”; (Test System: AMES SALMONELLA TYPHIMURIUM, Strain/Indicator: TA1537, Metabolic Activation: RAT, LIVER, S-9, AROCLOR 1254, Method: PREINCUBATION) “inactive; negative”. The mutagenic call by setting is: (Test System: AMES SALMONELLA TYPHIMURIUM, Strain/Indicator: UTH8413, Metabolic Activation: NONE, Method: STANDARD PLATE) “inactive; negative”; (Test System: AMES SALMONELLA TYPHIMURIUM, Strain/Indicator: UTH8413, Metabolic Activation: RAT, LIVER, S-9, AROCLOR, Method: STANDARD PLATE) “inactive; negative”; (Test System: AMES SALMONELLA TYPHIMURIUM, Strain/Indicator: UTH8414, Metabolic Activation: NONE, Method: STANDARD PLATE) “inactive; negative”; (Test System: AMES SALMONELLA TYPHIMURIUM, Strain/Indicator: UTH8414, Metabolic Activation: RAT, LIVER, S-9, AROCLOR, Method: STANDARD PLATE) “inactive; negative”; (Test System: MOUSE LYMPHOMA, Strain/Indicator: L5178Y (TK+/TK-), Metabolic Activation: NONE, Method: SUSPENSION/PLATE) “inactive; negative”; (Test System: MOUSE LYMPHOMA, Strain/Indicator: L5178Y (TK+/TK-), Metabolic Activation: RAT, LIVER, S-9, AROCLOR 1254, Method: SUSPENSION/PLATE) “active; positive”.
For `Cc1ccc2c(c1)c(=NC(=O)c1cccc([N+](=O)[O-])c1)sn2C(=O)c1cccc([N+](=O)[O-])c1`, the mutagenic call (Test System: AMES SALMONELLA TYPHIMURIUM, Strain/Indicator: TA100, Metabolic Activation: S-9, Method: STANDARD PLATE) was “active; positive”.
